Measurements taken from patent US11214803B2, “Modulators of YAP1 expression” (Ionis Pharmaceuticals, Inc., priority 2019, dated 2022).
Strand notation (5' to 3'): a small letter for the sugar, then the base; units joined by * are phosphorothioate-linked, units joined directly phosphodiester-linked; [ ] holds rarer units or linkages, { } end groups; capitals alone tell only the bases. k = constrained ethyl (cEt); [5mC] = 5-methylcytosine; d = 2'-deoxy (DNA)

Legend:
Yap1 mRNA [1] = test: Antisense inhibition of human Yap1 in A-431 cells by cEt gapmers, single dose (Example 3, RTS36584); format: cell-based
Summary of the method: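 A-431 cells were treated by free uptake with 2,000 nM modified oligonucleotide (3-10-3 cEt gapmers, full phosphorothioate, 5-methylcytosines) for about 48 hours. Yap1 mRNA was quantified by real-time RT-PCR, normalized to RiboGreen total RNA, and expressed as % of untreated control; asterisked values mark oligonucleotides targeting the amplicon region.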

Yap1 mRNA [2] = test: Dose-dependent inhibition of human Yap1 in A-431 cells (Example 8, 10,000 cells per well, RTS4814); format: cell-based; details: for % UTC (Yap1 mRNA) / IC50: A-431 cells; for Yap1 mRNA, % UTC: A-431 cells, 10,000 cells per well
Summary of the method: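 A-431 cells (10,000/well) dosed with modified oligonucleotides by free uptake; Yap1 mRNA measured ~48 h later with primer-probe set RTS4814, normalized to total RNA (RIBOGREEN). Values are % of untreated control; IC50 from linear regression on log/linear plot.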

[3] = Table 34, Yap1 mRNA as percent of untreated control, 3-10-3 cEt gapmers targeting SEQ ID NO: 1 and 2, single dose
[4] = Table 29, Yap1 mRNA as percent of untreated control, 3-10-3 cEt gapmers targeting SEQ ID NO.: 1, and 2
[5] = 31.3 nM, free uptake, approximately 48 hours, RTS4814
[6] = 125.0 nM, free uptake, approximately 48 hours, RTS4814
[7] = 500.0 nM, free uptake, approximately 48 hours, RTS4814
[8] = 2000.00 nM, free uptake, approximately 48 hours, RTS4814
[9] = free uptake, approximately 48 hours, RTS4814, linear regression on log/linear plot
[10] = Table 27, Yap1 mRNA by 3-10-3 cEt gapmers targeting SEQ ID NO.: 1, and 2, percent of untreated control
[11] = Table 35, Yap1 mRNA as percent of untreated control, 3-10-3 cEt gapmers targeting SEQ ID NO: 1 and 2, single dose
[12] = Table 28, Yap1 mRNA as percent of untreated control, 3-10-3 cEt gapmers targeting SEQ ID NO.: 1, and 2

Row | Substance | YAP1 (% UTC) (Yap1 mRNA [1]; [3]) | % UTC (Yap1 mRNA) (Yap1 mRNA [2]; 31.3 nM) | % UTC (Yap1 mRNA) (Yap1 mRNA [2]; 125.0 nM) | % UTC (Yap1 mRNA) (Yap1 mRNA [2]; 500.0 nM) | % UTC (Yap1 mRNA) (Yap1 mRNA [2]; 2000.00 nM) | IC50 (Yap1 mRNA [2]; Yap1 mRNA) | YAP1 (% UTC) (Yap1 mRNA [1]; [4]) | Yap1 mRNA, % UTC (Yap1 mRNA [2]; [5]) | Yap1 mRNA, % UTC (Yap1 mRNA [2]; [6]) | Yap1 mRNA, % UTC (Yap1 mRNA [2]; [7]) | Yap1 mRNA, % UTC (Yap1 mRNA [2]; [8]) | IC50 (Yap1 mRNA [2]; [9]) | YAP1 (% UTC) (Yap1 mRNA [1]; [10]) | YAP1 (% UTC) (Yap1 mRNA [1]; [11]) | YAP1 (% UTC) (Yap1 mRNA [1]; [12]) | YAP1 (% UTC) (Yap1 mRNA [1]; Table 26, Yap1 mRNA by 3-10-3 cEt gapmers targeting SEQ ID NO.: 1, and 2, percent of untreated control)
1 | 1074452 (kT*kG*kA*d[5mC]*dT*dA*dA*dT*dG*dA*dT*dA*dG*k[5mC]*kA*k[5mC]; antisense) [compound 1074452] | 3 % UTC | 88 % UTC | 28 % UTC | 9 % UTC | 5 % UTC | 100 nM |  |  |  |  |  |  |  |  |  | 
2 | 1076527 (kG*k[5mC]*kA*d[5mC]*dA*dA*d[5mC]*d[5mC]*dT*dT*dA*d[5mC]*dA*kT*kT*kT; antisense) [compound 1076527] |  |  |  |  |  |  | 6 % UTC | 81 % UTC | 41 % UTC | 16 % UTC | 8 % UTC | 100 nM |  |  |  | 
3 | 1074479 (k[5mC]*kA*kT*dT*dT*dG*d[5mC]*d[5mC]*dT*dA*dG*dG*dT*kT*k[5mC]*k[5mC]; antisense) [compound 1074479] |  |  |  |  |  |  | 2 % UTC | 23 % UTC | 8 % UTC | 4 % UTC | 4 % UTC | < 20 nM |  |  |  | 
4 | 1076084 (k[5mC]*kA*kT*d[5mC]*dA*dA*dT*dA*dG*dA*dG*dA*dG*kT*k[5mC]*kG; antisense) [compound 1076084] | 7 % UTC | 69 % UTC | 34 % UTC | 12 % UTC | 8 % UTC | 100 nM |  |  |  |  |  |  |  |  |  | 
5 | 1076397 (antisense kA*kA*k[5mC]*d[5mC]*dT*dA*dT*dA*dT*dT*dT*dG*dA*kG*k[5mC]*k[5mC]) [compound 1076397] |  |  |  |  |  |  |  | 43 % UTC | 14 % UTC | 5 % UTC | 4 % UTC | < 20 nM | 4 % UTC |  |  | 
6 | 1076015 (kA*kT*kT*dT*dA*dG*dT*dT*dG*dG*dT*dT*dG*kT*kT*kA; antisense) [compound 1076015] |  |  |  |  |  |  | 8 % UTC | 70 % UTC | 37 % UTC | 15 % UTC | 9 % UTC | 100 nM |  |  |  | 
7 | 1074639 (antisense kT*kA*kG*dA*dT*dT*dT*dT*dG*dT*dA*dA*dT*kT*kG*kG) [compound 1074639] |  |  |  |  |  |  | 3 % UTC | 46 % UTC | 18 % UTC | 7 % UTC | 5 % UTC | < 20 nM |  |  |  | 
8 | 1074607 (DNA kA*kA*kG*dG*dT*dA*dT*dA*dA*dT*d[5mC]*dA*dT*kG*kA*kT) [compound 1074607] |  |  |  |  |  |  | 4 % UTC | 45 % UTC | 22 % UTC | 10 % UTC | 5 % UTC | < 20 nM |  |  |  | 
9 | 1076525 (kG*kA*kA*dT*dT*dT*dA*dT*dA*dT*d[5mC]*dA*dG*kG*kT*k[5mC]; antisense) [compound 1076525] |  |  |  |  |  |  |  | 43 % UTC | 14 % UTC | 5 % UTC | 2 % UTC | < 20 nM | 3 % UTC |  |  | 
10 | 1074453 (kG*kT*kG*dA*d[5mC]*dT*dA*dA*dT*dG*dA*dT*dA*kG*k[5mC]*kA; antisense) [compound 1074453] |  | 51 % UTC | 18 % UTC | 9 % UTC | 5 % UTC | < 20 nM |  |  |  |  |  |  |  | 4 % UTC |  | 
11 | 1074766 (kA*kT*k[5mC]*d[5mC]*d[5mC]*dA*dA*dT*dG*d[5mC]*dT*dA*d[5mC]*k[5mC]*k[5mC]*kA; antisense) [compound 1074766] |  |  |  |  |  |  |  | 72 % UTC | 32 % UTC | 14 % UTC | 7 % UTC | 100 nM |  |  | 8 % UTC | 
12 | 1075053 (antisense kA*kA*kT*dA*dT*dA*dT*dA*d[5mC]*dT*dT*dG*dA*kT*k[5mC]*k[5mC]) [compound 1075053] |  |  |  |  |  |  |  | 61 % UTC | 24 % UTC | 8 % UTC | 5 % UTC | 40 nM | 4 % UTC |  |  | 
13 | 1076399 (antisense kG*kA*kT*dA*dA*d[5mC]*dT*dT*dA*dG*dA*dG*dA*kT*kG*kT) [compound 1076399] |  |  |  |  |  |  | 4 % UTC | 60 % UTC | 29 % UTC | 11 % UTC | 6 % UTC | 40 nM |  |  |  | 
14 | 1075055 (antisense k[5mC]*kT*kA*dT*dT*dA*dA*dG*dT*dG*dA*dG*d[5mC]*kT*kT*kT) [compound 1075055] |  |  |  |  |  |  | 4 % UTC | 60 % UTC | 20 % UTC | 6 % UTC | 4 % UTC | 30 nM |  |  |  | 
15 | 1076556 (kG*kT*kA*dT*dA*dG*dG*d[5mC]*dA*dG*dA*dA*dG*k[5mC]*kA*kA; antisense) [compound 1076556] |  |  |  |  |  |  |  | 72 % UTC | 46 % UTC | 19 % UTC | 11 % UTC | 100 nM |  |  |  | 9 % UTC
16 | 1076340 (antisense kT*kA*kA*dT*dA*dT*d[5mC]*d[5mC]*dT*d[5mC]*dA*dT*d[5mC]*kA*kG*k[5mC]) [compound 1076340] | 8 % UTC | 79 % UTC | 42 % UTC | 17 % UTC | 11 % UTC | 100 nM |  |  |  |  |  |  |  |  |  | 
17 | 1075797 (kG*kA*kT*dA*dA*dT*d[5mC]*dA*dT*dG*dA*dT*dA*k[5mC]*kT*k[5mC]; antisense) [compound 1075797] |  | 43 % UTC | 11 % UTC | 4 % UTC | 3 % UTC | < 20 nM |  |  |  |  |  |  |  | 3 % UTC |  | 
18 | 1074229 (antisense kG*kA*kA*dG*dA*d[5mC]*dT*dG*dT*d[5mC]*dG*dA*dA*kG*kA*kT) [compound 1074229] |  | 58 % UTC | 24 % UTC | 9 % UTC | 5 % UTC | < 20 nM |  |  |  |  |  |  |  | 5 % UTC |  | 
19 | 1076526 (kG*kT*kA*dG*dA*dA*dA*dG*dA*dT*dG*dG*d[5mC]*kT*k[5mC]*kA; antisense) [compound 1076526] |  |  |  |  |  |  |  | 44 % UTC | 9 % UTC | 3 % UTC | 2 % UTC | < 20 nM |  |  | 3 % UTC | 
20 | 1076174 (kG*kA*kT*dA*dT*dA*dT*dG*dG*dT*dA*dG*d[5mC]*kA*kT*kA; antisense) [compound 1076174] |  |  |  |  |  |  |  | 58 % UTC | 21 % UTC | 7 % UTC | 4 % UTC | < 20 nM |  |  | 3 % UTC | 
21 | 1074613 (DNA k[5mC]*kA*kT*dA*dG*d[5mC]*dT*dT*dA*dT*dA*dT*dT*kG*kA*kA; antisense) [compound 1074613] |  | 63 % UTC | 23 % UTC | 9 % UTC | 6 % UTC | 40 nM |  |  |  |  |  |  |  | 7 % UTC |  | 
22 | 1074318 (antisense kG*kG*kA*dG*dA*dA*dT*dT*dT*dG*d[5mC]*dT*dG*kT*kG*k[5mC]) [compound 1074318] |  |  |  |  |  |  |  | 48 % UTC | 12 % UTC | 6 % UTC | 4 % UTC | < 20 nM |  |  | 4 % UTC | 
23 | 1076077 (kG*kG*kA*dT*dT*dA*dA*dA*dG*dT*dT*dT*dT*k[5mC]*kA*k[5mC]; antisense) [compound 1076077] |  |  |  |  |  |  |  | 53 % UTC | 19 % UTC | 9 % UTC | 5 % UTC | < 20 nM | 5 % UTC |  |  | 
24 | 1074580 (DNA kA*k[5mC]*k[5mC]*dA*d[5mC]*dT*dA*dT*dA*dA*dA*dG*d[5mC]*kT*kT*kA; further chemistry not given here) [compound 1074580] | 5 % UTC | 55 % UTC | 18 % UTC | 8 % UTC | 5 % UTC | < 20 nM |  |  |  |  |  |  |  |  |  | 
25 | 1075118 (k[5mC]*kT*kA*dT*dT*dT*dA*d[5mC]*dT*d[5mC]*dT*dG*dT*k[5mC]*kA*k[5mC]; antisense) [compound 1075118] |  |  |  |  |  |  |  | 85 % UTC | 36 % UTC | 8 % UTC | 4 % UTC | 100 nM |  |  | 4 % UTC | 
